Test results published in patent US20110275637A1, “PIPERAZINE DERIVATIVES AND THEIR USE AS LEPTIN RECEPTOR MODULATORS” (priority 2008, published 2011).

Columns and labels:
JEG-3 cells [1] = assay: JEG-3 protocol: [3H]-thymidine incorporation / proliferation (leptin assay in non-recombinant system); assay type: cell-based; settings: FIG. 6
From the text: Leptin Assay in Non-Recombinant System
It seems that overexpression of the receptor (as well as the possibility for different drugs to act on different parts of the signaling pathway triggered by leptin association with its receptor) results in most cases in the absence of activity of the drugs tested.
The leptin receptor expression in non-recombinant system is often fluctuating and care must be given to identify a system where signal stability remains within experiments. Using such a system, leptin receptor antagonist mimetics could be identified by evaluating is their action vs. leptin (see below).
Leptin is produced chiefly in adipose cells, but in humans, mRNA encoding leptin is also present in the placenta. Here, leptin might play an important proliferative role in the microvasculature. The possibility to use this hypothesis in a native cell line was evaluated.
In JEG-3 cells (choriocarcinoma cell line) leptin is able to stimulate proliferation up to 3 fold (Biol. Reprod. (2007) 76: 203-10). […] The radioactivity incorporated by the cells is an index of their proliferative activity and is measured in counts per minute (CPM) with a liquid scintillation beta counter. […]

JEG-3 cells [2] = settings: Biol. Reprod. (2007) 76: 203-10; cited from earlier work

Which results are given for “Leptin: a hormone synthesized in fat cells that is believed to act in the hypothalamus to reduce food intake and body weight”?
EC50 (JEG-3 cells [1]; JEG-3 cells (choriocarcinoma cell line), read-out: EC50, concentration-dependent increase in [3H]-thymidine incorporation): 2.1 nM; concentration of maximal effect on [3H]-thymidine incorporation (JEG-3 cells [1]; JEG-3 cells): 100 nM; stimulation of proliferation (JEG-3 cells [2]): up to 3 fold
